Source: patent publication EP0420121A1, “Antitumor composition” (Senju Pharmaceutical Co., Ltd., priority 1989, dated 1991)
Where “and” joins values, the source holds several entries; their conditions need not be identical. Identical values can stand only once.

Tested on: Sarcoma 180 cells
Test: Pharmacological activity testing in mice with sarcoma 180
Assay type: in vivo, ddy strain male mice
Conditions: 100 mg/kg intraperitoneally once daily for 11 days
Source text: Pharmacological activity testing in mice with sarcoma 180
Sarcoma 180 cells (1.16 X 10⁷ cells/animal) were transplanted into groups of 8 ddy strain male mice (5 to 6 weeks of age) subcutaneously at the back on the right side of the body. In one group, the compound S- (α ,β -dicarboxyethyl)glutathione (hereinafter referred to as "DCE-GS" for short) in the forms of a 1.0% (w/v) injectable solution (pH 6.5; isotonized with sodium chloride) was intraperitoneally administered to the animals in a volume corresponding to the dose of 100 mg/kg once daily for 11 days. The control group was intraperitoneally given the same volume of physiological saline once daily for the same period. On day 12, the animals were sacrificed, the tumor was excised from each animal and weighed.

SMILES: N[C@@H](CCC(=O)N[C@@H](CSC(CC(=O)O)C(=O)O)C(=O)NCC(=O)O)C(=O)O (stereo partly drawn) [DCE-GS, S-(α ,β -Dicarboxyethyl)glutathione]
- Tumor growth inhibition (day 12, versus physiological saline group): Tumor growth inhibition = (3.45 - 1.79)/3.45 X 100 = 48.1%
- Tumor weights (Mean) (sarcoma 180 transplanted subcutaneously, day 12, mean of 8 mice, physiological saline group 3.45± 0.42): 1.79 ± 0.14 g
- Tumor weights (individual animals) (sarcoma 180 transplanted subcutaneously, tumor excised and weighed on day 12, individual No. 1-8, 100 mg/kg): 2.48 g and 1.92 g and 2.09 g and 1.47 g and 1.95 g and 1.11 g and 1.62 g and 1.69 g
